Experimental data as given in patent US12558371B2, “Chondroitin sulfate polysaccharide, and semi-synthetic preparation method therefor and use thereof” (Institute of Materia Medica, Chinese Academy of Medical …, priority 2019, dated 2026).
Marks after values point to notes of the source that are not given here.

Tests used:
[1] = system: mouse ear acute swelling inflammation models caused by croton oil; assay: Mouse ear acute swelling inflammation model caused by croton oil; type: in vivo, Balb/c mice; settings: 5 mg/kg, once a day for 3 d
Description: Anti-inflammatory effects of the glycans 1 to 5 prepared in Examples 1 to 5 were evaluated, specifically as follows:
(1) Test method: experiments for evaluating pharmacodynamic activities of CS compounds in mouse ear acute swelling inflammation models caused by croton oil
Animals: Balb/c mice, male (20 g to 22 g); 8 mice per group.
Groups: model group, positive drug (indometacin) group (5 mg/kg), natural extract (CS-E) group (200 mg/kg), and glycan groups (200 mg/kg, 100 mg/kg, and 50 mg/kg). Each of the positive drug and the compounds of CS series was formulated with sodium carboxymethylcellulose at a concentration of 0.5% by mass, and stored in a refrigerator at 4° C.
Administration and test: the mice were administered for 3 d, once a day. After the last administration, an induction rate on mouse ear swelling (%) and an inhibition rate on the ear swelling degree (%) by the compounds were calculated.
Statistical analysis: the experimental results were all expressed as “mean±standard deviation”. A statistical difference between two groups was calculated and analyzed by the t-test method. * represents p<0.05, and ** represents p<0.01.

[2] = system: DSS-induced UC model mice; assay: DSS-induced acute ulcerative colitis (UC) mouse model; type: in vivo, C57BL/6J mice
Description: Pharmacodynamics of the Glycan 3 (referred to as SEMI5) prepared in Example 3 was evaluated on anti-DSS models, specifically as follows:
C57BL/6J mice, male (18 g to 20 g), 6 mice per group, which were purchased from Beijing Huafukang Biotechnology Co., Ltd., with a license No.: SCXK (Beijing) 2014-0004.
(1) Normal control group (control group): intragastrically administered with sodium carboxymethylcellulose at a concentration of 0.5% by mass.
(2) UC (Ulcerative colitis) model group (model group): intragastrically administered with sodium carboxymethylcellulose at a concentration of 0.5% by mass.
(3) SASP (a positive drug salazosulfapyridine) group: Shanghai Xinyi Pharmaceutical Co., Ltd. (Batch No.: 036151102), 500 mg/kg, which was formulated with sodium carboxymethylcellulose at a concentration of 0.5% by mass and stored at 4° C., and intragastrically administered once a day.
(4) SEMI5-50 group: 50 mg/kg, which was formulated with distilled water and stored at 4° C., and intragastrically administered once a day.
(5) SEMI5-150 group: 150 mg/kg, which was formulated with distilled water and stored at 4° C., and intragastrically administered once a day.
3. Experimental method After being adaptively raised for one week in an SPF animal house (experimental animal use license No.: SYXK (Beijing) 2014-0023), the C57BL/6J mice were randomly divided into 5 groups according to the above protocols. Mice in the UC model group and administration groups were modeled with DSS (MP, CA9011-18-1, US) every day according to the modeling method for ulcerative colitis that had been established in the laboratory. The normal control group (control group) and UC model group (model group) were intragastrically administered with sodium carboxymethylcellulose at a concentration of 0.5% by mass once a day. The SASP group, SEMI5-50 group, and SEMI5-150 group were intragastrically administered once a day according to the experimental protocols in the section of “Experimental groups”. 7 d after modeling, typical UC pathological changes such as obvious listlessness, activity reduction, weight loss, watery stool, and hematochezia occurred in animals of the UC model group. The experiments were terminated, and animals in each group were sacrificed. Each of evaluation indexes related with colitis was detected (as shown in the subsequent section of experimental results). The anti-UC pharmacodynamic activity of each of the compounds was evaluated comprehensively.
The animals were evaluated by the DAI scores in terms of indexes such as animal body weight loss, stool property, hematochezia. The lower the DAI score was, the closer was the condition of the animal to a normal physiological status.

[3] = 500 mg/kg intragastrically once a day, 7 d

Row | Structure (SMILES) | Inhibition rate (%) ([1]; Table 2) | Swelling rate (%) Mean ± SD ([1]; Table 2) | Inhibition rate (%) ([1]; Table 3) | Swelling rate (%) Mean ± SD ([1]; Table 3) | Inhibition rate (%) ([1]; Table 4) | Swelling rate (%) Mean ± SD ([1]; Table 4) | Effect on body weight reduction vs. UC model group (in words) ([2]; 500 mg/kg) | Effect on colon contracture vs. UC model group (in words) ([2]; 500 mg/kg) | Effect on disease complex index DAI scores vs. UC model group (in words) ([2]; 500 mg/kg) | Overall anti-UC activity (conclusion in words) ([2]; 500 mg/kg) | Colon contracture percentage (%) [2, 3] | Colon length (cm) [2, 3] | DAI complex index inhibition rate (%) [2, 3] | Disease activity index DAI [2, 3] | Body weight (g) X ± SD, End ([2]; 500 mg/kg intragastrically once a day, end, 7 d after modeling) | Body weight (g) X ± SD, Start ([2]; 500 mg/kg intragastrically once a day, start of experiment)
1 | COc1ccc2c(c1)c(CC(=O)O)c(C)n2C(=O)c1ccc(Cl)cc1 [Indometacin, indometacin] | 26.01% | 70.25 ± 20.97* % | 27.70% | 74.43 ± 20.97* % | 41.06% | 45.34 ± 6.92* % |  |  |  |  |  |  |  |  |  | 
2 | O=C(O)c1cc(/N=N/c2ccc(S(=O)(=O)Nc3ccccn3)cc2)ccc1O [SASP, salazosulfapyridine] |  |  |  |  |  |  | failed to effectively alleviate the body weight reduction | failed to effectively alleviate the colon contracture | improved to some extent | exhibited a certain anti-UC activity | 31.39% | 5.29 ± 0.61 cm | 14.68* % | 3.10 ± 0.59 | 18.76 ± 1.09 g | 21.97 ± 0.71 g
